Experimental findings from the supplement of paper PMC10949913 are described below.

Common to all, as to assay: area under concentration-response curve (viability) (AUC (a.u.)); higher = less active
What all share (conditions): 48 h

Assay [1] relates to CU-ACC1. The gist of the method:
(§1)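 AC50 and area under the curve values derive from fitted concentration-response curves, restricted to inhibitory or non-responding curve classes. The curves came from three adrenocortical carcinoma cell lines in 1,536-well plates, each receiving 23 nL of every library compound at 11 concentrations. Viability was read by CellTiter-Glo luminescence after 48 h, normalised per plate to vehicle and empty-well controls.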

The subject of assay [2] is NCI-H295R. The gist of the method:
as §1

The test system of assay [3] is CU-ACC2. The gist of the method:
as §1

Regarding `CC#CCn1c(N2CCC[C@@H](N)C2)nc2c1c(=O)n(Cc1nc(C)c3ccccc3n1)c(=O)n2C`, the “area under concentration-response curve” value amounted to 503 in assay [1], 561 in assay [2] and 606 in assay [3].
For `COCCNCc1ccc(-c2cc3nccc(Oc4ccc(NC(=O)C5(C(=O)Nc6ccc(F)cc6)CC5)cc4F)c3s2)nc1` the same measures were 302, 374 and 414.
For `CCOP(=O)(OCC)C(C)NC(=O)N(CCCl)N=O` (stereo not given) the same measures were 488, 510 and 540.
As to `C[C@@H]1CC[C@H]2[C@@H](C)C(=O)O[C@@H]3O[C@@]4(C)CC[C@@H]1[C@]32OO4`, the “area under concentration-response curve” value in assay [1] was 547; in assay [2], 556; in assay [3] it was 604.
For `NC(=O)c1ncn([C@@H]2O[C@H](CO)[C@@H](O)[C@H]2O)c1N` the same measures were 418, 545 and 519.
On the same counts, the results for `C[N]1C2=C(SC(=C2)[S+](C)[O-])C\3=C1C(=O)N(CC4=CC(=CC=C4)N)\N=C3` (stereo not given) are 363, 468 and 511.
Take `O=C(CCCc1ccc2cccnc2n1)NCc1cc(-c2ccc(F)c(C(F)(F)F)c2)no1`: the “area under concentration-response curve” value in assay [1] was 512; in assay [2], 491; in assay [3], 615.
On the same counts, the results for `C[C@H]1COC2=C3N1\C=C(C(O)=O)/C(=O)C3=CC(=C2N4CCN(C)CC4)F` are 522, 595 and 650.
`COc1nccc(-c2c(-c3ccc(F)cc3)ncn2C2CCNCC2)n1`: the “area under concentration-response curve” value in assay [1] is 429; in assay [2], 423; in assay [3], 482.
For `CCOC(=O)\C1=C\[C@@H](OC(CC)CC)[C@H](NC(C)=O)[C@@H](N)C1` the same measures were 508, 547 and 602.
On the same counts, the results for `CCN(CC)CCOc1ccc(Cc2ccccc2)cc1` are 454, 503 and 526.
On the same counts, the results for `Cn1c(COP(=O)(NCCBr)NCCBr)cnc1[N+](=O)[O-]` are 394, 514 and 575.
Consider `CC1C\2C(O)C3C(N(C)C)C(=O)\C(=C(O)/C3(O)C(=O)C2=C(O)/C4=C1C=CC=C4O)C(N)=O` (stereo not given), for which the “area under concentration-response curve” value in assay [1] amounted to 473; in assay [2], 502; in assay [3] it was 573.
On the same counts, the results for `CC1=CC=C2\N=C/3N(CC[C@@]3(O)C(=O)C2=C1)C4=CC=CC=C4` are 537, 552 and 616.
Turning to `CC(C)C[C@@H]1NC(=O)[C@@H](C(C)C)NC(=O)[C@@H]2CCCN2C(=O)[C@@H](CC(=O)O)NC(=O)[C@@H](Cc2c[nH]c3ccccc23)NC1=O`, the “area under concentration-response curve” value in assay [1] was 489; in assay [2], 550; in assay [3] it was 604.
On the same counts, the results for `C[S+](=O)([O-])c1ccc(C(=O)Nc2ccc(Cl)c(-c3ccccn3)c2)c(Cl)c1` are 544, 591 and 674.
As for `CC(C(C)N1CC(=O)NC(=O)C1)N1CC(=O)NC(=O)C1` (stereo not given), the “area under concentration-response curve” value in assay [1] worked out at 488; in assay [2] it was 538; in assay [3], 605.
Turning to `O=C(Nc1ccc(-c2ccnc(Nc3ccc(N4CCOCC4)cc3)n2)cc1)C1CCCN1` (stereo not given), the “area under concentration-response curve” value in assay [1] was determined as 501; in assay [2], 553; in assay [3], 601.
For `Oc1cc2c(cc1O)C1c3ccc(O)c(O)c3OCC1(O)C2` (stereo not given) the same measures were 546, 527 and 542.
For `C[S+](=O)([O-])c1cc(F)cc2c3c(n(Cc4ccc(Cl)cc4)c12)[C@@H](CC(=O)O)CC3` the same measures were 536, 544 and 613.
On the same counts, the results for `CC(C)C(=O)Nc1ccc([N+](=O)[O-])c(C(F)(F)F)c1` are 551, 570 and 627.
As for `Cc1nc(-c2ccc(OCC(C)C)c(C#N)c2)sc1C(=O)O`, the “area under concentration-response curve” value in assay [1] was 478; in assay [2], 306; in assay [3], 544.
On the same counts, the results for `Cn1cc(-c2ccc3nnc(C(F)(F)c4ccc5ncccc5c4)n3n2)cn1` are 478, 502 and 583.
For the compound `CCCCN(CCCC)CC(O)c1cc(Cl)cc2c1-c1ccc(Cl)cc1/C2=C/c1ccc(Cl)cc1` (stereo not given), the “area under concentration-response curve” value in assay [1] worked out at 546; in assay [2], 582; in assay [3], 631.
On the same counts, the results for `CCN[C@H]1C[C@H](C)[S+](=O)([O-])c2sc([S+](N)(=O)[O-])cc21` are 514, 558 and 612.
For `OC(=O)\C1=C\N(C2CC2)C3=CC(=C(F)C=C3C1=O)N4CCNCC4` the same measures were 571, 561 and 693.
On the same counts, the results for `CN1C(=O)N[C@@H](Cc2c[nH]c3c(Cl)cccc23)C1=O` are 531, 535 and 512.
With `Cc1cc(C)c(/C=C2\C(=O)Nc3ccccc32)[nH]1`, the “area under concentration-response curve” value in assay [1] is 513; in assay [2] it was 532; in assay [3], 559.
With `O=C(O)CCNc1cc(N2CCc3ccccc3CC2)nc(-c2cccnc2)n1`, the “area under concentration-response curve” value in assay [1] was 538; in assay [2] it was 533; in assay [3], 636.
On the same counts, the results for `CC[C@@H](C(N)=O)N1CCCC1=O` are 532, 545 and 520.
With `CCC(=O)NCC[C@@H]1CCc2ccc3c(c21)CCO3`, the results for the “area under concentration-response curve” value in assay [1], in assay [2] and in assay [3] were 490, 531 and 564, respectively.
Turning to `CCC(=O)Nc1cccc(Oc2nc(Nc3ccc(N4CCN(C)CC4)cc3OC)ncc2Cl)c1`, the “area under concentration-response curve” value in assay [2] came to 465; in assay [3], 523.
For `C[C@]12CCC3c4ccc(O)cc4CCC3C1CCC2=O` (stereo not given in full) the same measures were 508 and 565.
For the compound `Nc1nc(NCCNc2ncc(-n3ccnc3)c(-c3ccc(Cl)cc3Cl)n2)ccc1[N+](=O)[O-]`, the “area under concentration-response curve” value was found to be 536 in assay [2] and 485 in assay [3].
On the same counts, the results for `CC[C@H](NC1=C2N=C[NH]C2=NC=N1)C/3=N/C4=C(C(=CC=C4)F)C(=O)N3C5=CC=CC=C5` are 536 and 582.
For `OCc1ccccc1O[C@@H]1O[C@H](CO)[C@@H](O)[C@H](O)[C@H]1O` the same measures were 563 and 616.
For `C[C@]12CCC\3=C\4CCC(=O)\C=C4CC[C@H]3[C@@H]1CC[C@@]2(O)CC#N` the same measures were 606 and 649.
Consider `CCc1cccc(CC)c1NC(=O)N1Cc2[nH]nc(NC(=O)c3ccc(N4CCN(C)CC4)cc3)c2C1`, for which the “area under concentration-response curve” value was 597 in assay [2] and 614 in assay [3].
On the same counts, the results for `CCC1(c2ccccc2)C(=O)NCNC1=O` are 521 and 566.
For `COc1cc2ncnc(Nc3cccc(Cl)c3F)c2cc1OC(=O)N1CCN(C)C[C@H]1C` the same measures were 531 and 610.
On the same counts, the results for `C[C@@H](O)[C@@H]1NC(=O)[C@H](CCCCN)NC(=O)[C@@H](Cc2c[nH]c3ccccc23)NC(=O)[C@H](Cc2ccccc2)NC(=O)[C@@H](NC(=O)[C@H](N)Cc2ccccc2)CSSC[C@@H](C(=O)N[C@H](CO)[C@@H](C)O)NC1=O` are 612 and 648.
On to `CCc1ccc2nc(Nc3cc(Cc4ccccc4)nc(N[C@H]4CC[C@H](O)CC4)n3)sc2c1`, for which the “area under concentration-response curve” value in assay [2] stood at 580; in assay [3], 620.
